# Reference: patent US20140005163A1 (NOVARTIS AG, priority 2010, published 2014)
# pIC50: −log10 of the molar value.
# Key:
# [1] = test system: S6 Ribosomal Protein phosphorylation Ser235/236 in TSC1 null mouse embryo fibroblast (MEF) cells; assay: Reverse protein array assay, S6 Ribosomal Protein phosphorylation Ser235/236 in TSC1 null MEF cells; format: cell-based; conditions: 1 h, pS6 ribosomal protein Ser235/236, 60 minutes incubation, read-out: p-S6 IC50
# Outline: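 TSC1−/− MEFs, seeded and held ≥20 h at 37 °C/5% CO2, were exposed to 8-step serial compound dilutions (0.02% DMSO final; DMSO vehicle control) for 60 min at 37 °C. Cells were then lysed on ice for 10 min and lysates spotted onto reverse protein array chips.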
# [2] = test system: PKB Ser473 phosphorylation in Rat1-myr-HA-p110 beta cells; assay: Reverse protein array assay, PKB Ser473 phosphorylation in Rat1-myr-p110 beta cells; format: cell-based; conditions: 0.5 h, pAkt Ser473, 30 minutes incubation, read-out: p-PKB IC50
# Outline: (§1)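 Cells: Rat1-myr-HA-p110 alpha/beta/delta, seeded ≥20 h. Lysis on ice 10 min; reverse-phase protein array, 4 lysate dilutions; fluorescence read, relative intensity.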
# [3] = test system: PKB Ser473 phosphorylation in Rat1-myr-HA-p110 delta cells; assay: Reverse protein array assay, PKB Ser473 phosphorylation in Rat1-myr-p110 delta cells; format: cell-based; conditions: read-out: p-PKB IC50
# Outline: as §1
# [4] = Solubility at pH 6.8; format: physicochemical; conditions: pH 6.8, aqueous buffer, thermodynamic from solid; read-out: solubility
# Outline: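 Solubility was measured at pH 6.8 following the cited Zhou et al. (2007) procedure.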
# [5] = test system: PKB Ser473 phosphorylation in Rat1-myr-HA-p110 alpha cells; assay: Reverse protein array assay, PKB Ser473 phosphorylation in Rat1-myr-p110 alpha cells; format: cell-based; conditions: 0.5 h, pAkt Ser473, 30 minutes compound incubation, read-out: p-PKB IC50
# Outline: as §1
# [6] = biological target: T1, mTOR (Homo sapiens, UniProt P42345); assay: Biochemical assay for m-TOR by TR-FRET; conditions: 8 μM ATP, 400 nM GFP-4EBP1, 0.5 nM mTOR
# T1 construct: purchased Invitrogen Corporation (Carlsbad/CA, USA) PV4753
# T1 sequence (P42345 1360-2549 limits assumed): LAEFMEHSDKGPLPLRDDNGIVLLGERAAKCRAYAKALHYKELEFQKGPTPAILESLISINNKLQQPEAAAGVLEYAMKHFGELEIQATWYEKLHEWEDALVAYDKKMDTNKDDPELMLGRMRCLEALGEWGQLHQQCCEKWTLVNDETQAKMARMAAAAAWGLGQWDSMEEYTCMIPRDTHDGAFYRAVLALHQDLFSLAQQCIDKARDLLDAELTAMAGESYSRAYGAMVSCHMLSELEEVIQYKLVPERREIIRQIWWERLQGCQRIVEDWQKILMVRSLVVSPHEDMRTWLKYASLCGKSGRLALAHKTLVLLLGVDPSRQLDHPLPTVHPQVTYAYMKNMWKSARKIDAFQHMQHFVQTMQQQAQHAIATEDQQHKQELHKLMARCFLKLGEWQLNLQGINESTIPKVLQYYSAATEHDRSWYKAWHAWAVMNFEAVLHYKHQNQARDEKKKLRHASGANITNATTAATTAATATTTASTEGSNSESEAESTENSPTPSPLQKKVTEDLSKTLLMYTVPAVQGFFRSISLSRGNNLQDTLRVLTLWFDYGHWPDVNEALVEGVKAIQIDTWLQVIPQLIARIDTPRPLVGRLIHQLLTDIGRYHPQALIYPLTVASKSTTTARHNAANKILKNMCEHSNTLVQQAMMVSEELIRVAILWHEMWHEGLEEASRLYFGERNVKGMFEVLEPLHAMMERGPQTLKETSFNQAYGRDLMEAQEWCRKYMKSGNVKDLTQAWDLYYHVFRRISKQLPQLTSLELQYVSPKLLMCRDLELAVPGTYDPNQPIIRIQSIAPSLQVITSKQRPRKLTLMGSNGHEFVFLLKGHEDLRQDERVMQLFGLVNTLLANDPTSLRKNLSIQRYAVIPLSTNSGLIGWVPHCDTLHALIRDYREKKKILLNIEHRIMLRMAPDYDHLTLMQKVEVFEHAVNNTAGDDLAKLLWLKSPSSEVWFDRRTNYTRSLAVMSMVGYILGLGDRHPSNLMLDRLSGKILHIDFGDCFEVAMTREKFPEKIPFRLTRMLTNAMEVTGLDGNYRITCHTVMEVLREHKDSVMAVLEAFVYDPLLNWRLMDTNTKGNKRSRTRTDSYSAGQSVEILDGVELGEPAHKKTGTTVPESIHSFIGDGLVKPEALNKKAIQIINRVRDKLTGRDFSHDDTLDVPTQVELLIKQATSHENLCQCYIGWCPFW
# Outline: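 mTOR (0.5 nM final) phosphorylated GFP-4EBP1 (400 nM final) with ATP (8 μM final) at rt in 50 mM HEPES pH 7.5, 10 mM MnCl2, 50 mM NaCl, 1 mM EGTA, 1 mM DTT. EDTA stop with Tb3+-anti-p4EBP1 [pThr46] antibody (0.5 nM); TR-FRET read 15 min later.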
pIC50 [2],pIC50 [3],solubility [4] [µg/mL],pIC50 [5],pIC50 [6],SMILES,pIC50 [1]
7.24,6.99,81,7.14,7.23,"CCn1cc(-n2c(=O)n(C)c3cnc4ccc(-c5cnc(OC)nc5)cc4c32)c(C)n1 [Example 17.1, 1-(1-Ethyl-3-methyl-1H-pyrazol-4-yl)-8-(2-methoxy-pyrimidin-5-yl)-3-methyl-1,3-dihydro-imidazo[4,5-c]quinolin-2-one]",7.06
7.40,7.24,32,7.72,7.17,"COc1ncc(-c2ccc3ncc4c(c3c2)n(-c2cn(C)nc2C)c(=O)n4C)cn1 [Example 17.2, 1-(1,3-Dimethyl-1H-pyrazol-4-yl)-8-(2-methoxy-pyrimidin-5-yl)-3-methyl-1,3-dihydro-imidazo[4,5-c]quinolin-2-one]",7.48
7.66,7.55,4,7.68,7.92,"COc1ncc(-c2ccc3ncc4c(c3c2)n(-c2cn(C)nc2Cl)c(=O)n4C)cn1 [Example 17.3, 1-(3-Chloro-1-methyl-1H-pyrazol-4-yl)-8-(2-methoxy-pyrimidin-5-yl)-3-methyl-1,3-dihydro-imidazo[4,5-c]quinolin-2-one]",8.52
8.15,7.59,16,7.89,8.40,"Cc1nn(C)cc1-n1c(=O)n(C)c2cnc3ccc(-c4ccc(N)nc4)cc3c21 [Example 23.1, 8-(6-Amino-pyridin-3-yl)-1-(1,3-dimethyl-1H-pyrazol-4-yl)-3-methyl-1,3-dihydro-imidazo[4,5-c]quinolin-2-one]",8.40
8.22,7.74,45,7.96,8.15,"Cc1nn(C(C)C)cc1-n1c(=O)n(C)c2cnc3ccc(-c4ccc(N)nc4)cc3c21 [Example 23.2, 8-(6-Amino-pyridin-3-yl)-1-(1-isopropyl-3-methyl-1H-pyrazol-4-yl)-3-methyl-1,3-dihydro-imidazo[4,5-c]quinolin-2-one]",8.70
7.42,7.04,4,7.52,7.28,"COCCOc1ccc(-c2ccc3ncc4c(c3c2)n(-c2cn(C)nc2C)c(=O)n4C)cc1OC [Example 30.1, 1-(1,3-Dimethyl-1H-pyrazol-4-yl)-8-[3-methoxy-4-(2-methoxy-ethoxy)-phenyl]-3-methyl-1,3-dihydro-imidazo[4,5-c]quinolin-2-one]",7.85
7.96,7.34,19,7.85,> 8.52,"CNC(=O)c1ccc(-c2ccc3ncc4c(c3c2)n(-c2cn(C)nc2C)c(=O)n4C)cc1 [Example 43.1, 4-[1-(1,3-Dimethyl-1H-pyrazol-4-yl)-3-methyl-2-oxo-2,3-dihydro-1H-imidazo[4,5-c]quinolin-8-yl]-N-methyl-benzamide]",8.52
7.10,6.81,> 385,7.22,8.15,"Cc1nn(C)cc1-n1c(=O)n(C)c2cnc3ccc(-c4cncc(N)c4)cc3c21 [Example 45.1, 8-(5-Amino-pyridin-3-yl)-1-(1,3-dimethyl-1H-pyrazol-4-yl)-3-methyl-1,3-dihydro-imidazo[4,5-c]quinolin-2-one]",7.36
8.22,7.66,4,7.82,> 8.52,"Cc1nn(CC(=O)N(C)C)cc1-n1c(=O)n(C)c2cnc3ccc(-c4ccc(-n5cccn5)cc4)cc3c21 [Example 51.2, N,N-Dimethyl-2-{3-methyl-4-[3-methyl-2-oxo-8-(4-pyrazol-1-yl-phenyl)-2,3-dihydro-imidazo[4,5-c]quinolin-1-yl]-pyrazol-1-yl}-acetamide]",9.00
8.05,7.02,11,8.22,7.13,"CCOc1ncc(-c2ccc3ncc4c(c3c2)n(-c2cn(C)nc2C)c(=O)n4C)cn1 [Example 52, 1-(1,3-Dimethyl-1H-pyrazol-4-yl)-8-(2-ethoxy-pyrimidin-5-yl)-3-methyl-1,3-dihydro-imidazo[4,5-c]quinolin-2-one]",7.32
7.37,7.36,> 435,7.38,7.03,"COCc1cncc(-c2ccc3ncc4c(c3c2)n(-c2cn(C)nc2Cl)c(=O)n4C)c1 [Example 54.2, 1-(3-Chloro-1-methyl-1H-pyrazol-4-yl)-8-(5-methoxymethyl-pyridin-3-yl)-3-methyl-1,3-dihydro-imidazo[4,5-c]quinolin-2-one]",9.00
7.54,7.30,25,7.80,7.82,"CCOc1cncc(-c2ccc3ncc4c(c3c2)n(-c2cn(C)nc2C)c(=O)n4C)c1 [Example 56.1, 1-(1,3-Dimethyl-1H-pyrazol-4-yl)-8-(5-ethoxy-pyridin-3-yl)-3-methyl-1,3-dihydro-imidazo[4,5-c]quinolin-2-one]",8.40
6.86,7.07,27,7.60,7.51,"CCn1cc(-n2c(=O)n(C)c3cnc4ccc(-c5cncc(OC(C)C)c5)cc4c32)c(C)n1 [Example 58.4, 1-(1-Ethyl-3-methyl-1H-pyrazol-4-yl)-8-(5-isopropoxy-pyridin-3-yl)-3-methyl-1,3-dihydro-imidazo[4,5-c]quinolin-2-one]",8.70
6.58,6.69,> 444,6.90,7.02,"COCCOc1cncc(-c2ccc3ncc4c(c3c2)n(-c2cn(C)nc2C)c(=O)n4C)c1 [Example 59.1, 1-(1,3-Dimethyl-1H-pyrazol-4-yl)-8-[5-(2-methoxy-ethoxy)-pyridin-3-yl]-3-methyl-1,3-dihydro-imidazo[4,5-c]quinolin-2-one]",8.22
7.55,6.61,8,7.89,7.19,"Cc1nn(C)cc1-n1c(=O)n(C)c2cnc3ccc(-c4cncc(OCC5CC5)c4)cc3c21 [Example 61, 8-(5-Cyclopropylmethoxy-pyridin-3-yl)-1-(1,3-dimethyl-1H-pyrazol-4-yl)-3-methyl-1,3-dihydro-imidazo[4,5-c]quinolin-2-one]",9.00
6.53,6.42,133,6.66,6.49,"Cc1nn(C)c(C)c1-n1c(=O)n(C)c2cnc3ccc(-c4cnc(N)nc4)cc3c21 [Example 81.2, 8-(2-Amino-pyrimidin-5-yl)-3-methyl-1-(1,3,5-trimethyl-1H-pyrazol-4-yl)-1,3-dihydro-imidazo[4,5-c]quinolin-2-one]",7.72
8.22,7.48,6,> 8.30,7.77,"CCOc1cc(-c2ccc3ncc4c(c3c2)n(-c2cn(C)nc2C)c(=O)n4C)cnc1C [Example 85.1, 1-(1,3-Dimethyl-1H-pyrazol-4-yl)-8-(5-ethoxy-6-methyl-pyridin-3-yl)-3-methyl-1,3-dihydro-imidazo[4,5-c]quinolin-2-one]",9.00
8.10,7.82,3,> 8.30,8.10,"Cc1ncc(-c2ccc3ncc4c(c3c2)n(-c2cn(C)nc2Cl)c(=O)n4C)cc1N [Example 88.1, 8-(5-Amino-6-methyl-pyridin-3-yl)-1-(3-chloro-1-methyl-1H-pyrazol-4-yl)-3-methyl-1,3-dihydro-imidazo[4,5-c]quinolin-2-one]",8.70
6.41,6.20,13,6.63,6.29,"CCOc1cc(-c2ccc3ncc4c(c3c2)n(-c2cn(C)nc2C)c(=O)n4C)ccn1 [Example 91, 1-(1,3-Dimethyl-1H-pyrazol-4-yl)-8-(2-ethoxy-pyridin-4-yl)-3-methyl-1,3-dihydro-imidazo[4,5-c]quinolin-2-one]",7.44
7.52,7.18,38,7.33,7.68,"COc1ccc(-c2ccc3ncc4c(c3c2)n(-c2cn(CCO)nc2C)c(=O)n4C)cn1 [Example 103.1, 1-[1-(2-Hydroxy-ethyl)-3-methyl-1H-pyrazol-4-yl]-8-(6-methoxy-pyridin-3-yl)-3-methyl-1,3-dihydro-imidazo[4,5-c]quinolin-2-one]",7.89
